Entries after “also recorded” stand apart in the source; their conditions may differ.
Key:
[1] = test system: Microcystis aeruginosa (FACHB-905); test: Algicidal effect on toxin-producing Microcystis aeruginosa, OD680 over 5 d in light incubator; assay type: cell-based
Description: (§1) Microcystis aeruginosa is cultured in a light incubator (GZX-250BS-III), provided by Shanghai CIMO Medical Instrument Co., Ltd., with a light intensity of 3000 LX, a light-dark time ratio of 12:12, and a temperature setting of 25° C. The four kinds of bacteria are all cultured in a biochemical incubator (SPX-150), provided by Shanghai Yuejin Medical Instruments Co., Ltd., with a temperature setting of 37° C.
(§2) The concentration of Microcystis aeruginosa and other bacteria is measured with an ultraviolet spectrophotometer (Shimadzu, UV-2700), and the concentration is characterized by the optical density of liquid at 680 nm and 600 nm, and recorded as OD680 and OD600, respectively.
(§3) 100 mL of BG-11 medium was added to a 150 mL Erlenmeyer flasks, and was inoculated with cyanobacteria of 0.2 calculated as OD680 under aseptic conditions. Different volumes of the AA stock solution were added to the Erlenmeyer flasks to make sure that the dosage of AA was 5 mg/L, 7 mg/L, 10 mg/L, 15 mg/L and 20 mg/L in different Erlenmeyer flasks. At the same time, a control experiment (Control) without AA was established. The cyanobacteria were put in a light incubator for culture. Considering the existing reports that the most suitable growth light for cyanobacteria was 2,000-4,000 LX (see “Freshwater Algae Culture Collection at the Institute of Hydrobiology”, website “http://algae.ihb.ac.cn/Products/ProductDetail.aspx?product=523”, and the literature “The effect of light on the growth and chlorophyll fluorescence of Chlorella and Microcystis aeruginosa”, Journal of Xi'an University of Arts and Science, 2019, 22, 73-77”), 3,000 LX was selected as the light intensity in the present example. At the beginning of the incubation and after 0.5 d, 1 d, 1.5 d, 2 d, 3 d, 4 d and 5 d of the incubation, samples were taken to detect the OD680 under aseptic conditions.

[2] = test system: Microcystis aeruginosa (FACHB-469); test: Algicidal effect on non-toxic Microcystis aeruginosa, OD680 over 5 d in light incubator; assay type: cell-based
Description: as §1, §2, §3
Except for the different cyanobacteria strain, other operations are the same as those in step (1).

Microcystis aeruginosa [3] = test: Algicidal effect at different initial densities of Microcystis aeruginosa, OD680; assay type: cell-based; conditions: 15 mg/L; initial OD680 0.11 to 1.0 (up to 2.59×10^7 cells/mL); 5 d
Description: (§4) Unless otherwise specified, the Microcystis aeruginosa species used in the following examples is the high-toxin-producing strain FACHB-905.
as §2
100 mL of BG-11 medium was added to 150 mL Erlenmeyer flasks, and was inoculated with cyanobacteria to finally obtain solutions with the OD680 of 0.11, 0.27, 0.62 and 1.0, respectively, under aseptic conditions. A certain volume of the AA stock solution was added to the Erlenmeyer flasks, so that the dosage of AA is 15 mg/L. At the same time, the control experiments (Control) without AA were established for different cyanobacteria densities. The cyanobacteria were put in a light incubator for culture. At the beginning of the incubation and after 1 d, 2 d, 3 d, 4 d, and 5 d of the incubation, samples were taken to detect the OD680 under aseptic conditions.

Microcystis aeruginosa [4] = test: Comparison of algaecides, inhibition rate from chlorophyll a content; assay type: cell-based; conditions: incubated 3 days; 15 mg/L
Excerpt: as §4
The measurement of chlorophyll a refers to the method in the literature (“Potent removal of cyanobacteria with controlled release of toxic secondary metabolites by a titanium xerogel coagulant”, Water Res. 2018, 128, 341-349). Specifically, collected algae culture is filtered with a 0.7 μm GF/F glass filter membrane (Whatman). The collected cells are frozen overnight in a refrigerator at −4° C. Then 90% acetone is added for overnight extraction. The extract is centrifuged in a high-speed refrigerated centrifuge (Tianuoda, CT14RD) at 10,000 rpm and 4° C. for 10 min to collect the supernatant, and the absorbance is detected at 630 nm, 663 nm, 645 nm and 750 nm. The formula for calculating the content of chlorophyll a is as follows:
[formula] wherein A663, A750, A645 and A750 are the absorbance of the supernatant at 663 nm, 750 nm, 645 nm and 750 nm, respectively. Ve is the volume of an extracted solution, Vs is the volume of a filtered solution, and δ is the optical path of a cuvette. The calculation formula for the inhibition rate of an algaecide on Microcystis aeruginosa is as follows: […]
300 mL of BG-11 medium was added to 500 mL Erlenmeyer flasks, and was inoculated with cyanobacteria of 0.2 calculated as OD680 under aseptic conditions. […]

Bacillus subtilis = test: Bacterial growth with AA, OD600 after 24 h; assay type: cell-based; conditions: for effect on growth (OD600): 6-768 mg/L, 24 h, vs control
Description: (§5) The bacteria used in the following examples are Escherichia coli, Salmonella, Bacillus subtilis and Staphylococcus aureus, all of which are provided by the School of Life Sciences, Nanjing University. The bacteria are cultured with an LB nutrient broth. The main components of the LB nutrient broth include: tryptone 10.0 g/L, yeast extract 5.0 g/L, and sodium chloride 10.0 g/L.
as §1, §2
(§6) 4 mL of nutrient broth was added to 9 test tubes under aseptic conditions, and the test tubes were numbered 1 to 9. A broth stock solution containing 1,536 mg/L AA was prepared, and 4 mL of which was taken and added to the No. 9 test tube. After the solution in the No. 9 test tube was uniformly mixed, 4 mL of the mixed solution in the No. 9 test tube was taken and added to the No. 8 test tube. By analogy, dilution was performed by the stepwise dilution method to the No. 2 test tube, and after uniform mixing, 4 mL of the solution in the No. 2 test tube was taken and discarded. The No. 1 test tube without AA was taken as the blank group (Control). The final concentrations of AA in each test tube from No. 1 to No. 9 were 0 mg/L, 6 mg/L, 12 mg/L, 24 mg/L, 48 mg/L, 96 mg/L, 192 mg/L, 384 mg/L, and 768 mg/L, respectively. A suspension of the bacteria was diluted with nutrient broth to an OD600 of 0.05. 100 μL of the diluted suspension was added to each of the 9 test tubes, and the test tubes were sealed with sterilized sealing films. After completing the above operations, the bacterial solutions were put into a biochemical incubator, and the OD600 in each test tube was measured after incubation for 24 h.

Escherichia coli = test: Bacterial growth with AA, OD600 after 24 h; assay type: cell-based; conditions: for growth rate (OD600) / effect on growth (OD600): 24 h; for effect on growth (OD600): 6-768 mg/L, vs control
Description: as §5, §1, §2, §6

Salmonella = test: Bacterial growth with AA, OD600 after 24 h; assay type: cell-based
Description: as §5, §1, §2, §6

Staphylococcus aureus = test: Bacterial growth with AA, OD600 after 24 h; assay type: cell-based
Description: as §5, §1, §2, §6

Microcystis aeruginosa [5] = test: Actual photochemical quantum yield of the photosystem (Water-PAM); assay type: cell-based
Description: as §4
The actual photochemical quantum yield is measured using a Water-PAM phytoplankton analyzer (Walz), and 2.5 mL of algae culture is taken to measure Fm′ and Fs after light adaptation. The calculation formula for the actual photochemical quantum yield is as follows: ϕe=ΔF/Fm′=(Fm′−Fs)/Fm′ wherein ϕe is the actual photochemical quantum yield, and Fm′ and Fs are the maximum chlorophyll fluorescence and the stable chlorophyll fluorescence of the algae culture after light adaptation, respectively (“Effects of different algaecides on the photosynthetic capacity, cell integrity and microcystin-LR release of Microcystis aeruginosa”, Sci. Total Environ. 2013, 463, 111-119).
100 mL of BG-11 medium was added to 150 mL Erlenmeyer flasks, and was inoculated with cyanobacteria to an initial OD680 of 0.2 under aseptic conditions. Different volumes of the AA stock solution were added to the Erlenmeyer flasks, so that the dosage of AA was 7 mg/L, 10 mg/L and 15 mg/L, respectively. At the same time, a control experiment (Control) without AA was established. […] At the beginning of the incubation and after 0.5 d, 1 d, 1.5 d, 2 d, 3 d, 4 d, and 5 d of the incubation, samples were taken to detect the chlorophyll fluorescence parameters under aseptic conditions.

Microcystis aeruginosa [6] = test: Growth inhibition under natural light (sunlit window sill), OD680; assay type: cell-based; conditions: under sunlight, within 5 days
Description: as §4, §2
100 mL of BG-11 medium was added to 150 mL Erlenmeyer flasks, and was inoculated with cyanobacteria to an initial OD680 of 0.2 under aseptic conditions. A certain volume of the AA stock solution was added to the Erlenmeyer flasks, so that the dosage of AA was 10 mg/L or 20 mg/L. At the same time, a control experiment (Control) without AA was established. The cyanobacteria were placed at a sunlit window sill for incubation. At the beginning of the incubation and after 0.5 d, 1 d, 1.5 d, 2 d, 3 d, 4 d, and 5 d of the incubation, samples were taken to detect the OD680 under aseptic conditions.

[7] = 25° C.; cited from earlier work
[8] = pH 6.4; cited from earlier work
Daphnia magna = conditions: cited from earlier work
[9] = concentration less than 738 mg/L

## CC(=O)CC(C)=O [AA, acetylacetone]
[1]; 5 mg/L, compared to the control group
  effect on growth (OD680): no significant effect
[1]; 7 mg/L
  effect on growth (OD680): inhibited, but the growth curve of which is still increase
[1]; 10 mg/L, within 5 d, weaker than 15 mg/L
  algicidal effect on growth (OD680): continued to show algicidal effect
[1]; 20 mg/L, compared with 15 mg/L AA
  growth curve (OD680): no significant change in the growth curve
[1]; AA concentration greater than 15 mg/L, starting from day 1.5
  optical density (OD680): began to decrease
[1]; first day of addition, 5-20 mg/L
  effect on growth (OD680): no significant effect
[2]; 5 mg/L
  algicidal effect on growth (OD680): still showed algicidal effect
[2]; 7 mg/L
  algicidal effect on growth (OD680): a certain algicidal effect
[2]; 20 mg/L, compared with 10 mg/L and 15 mg/L AA
  growth curve (OD680): did not change significantly
[2]; dosage greater than 10 mg/L
  effect on growth (OD680): significantly inhibited
[2]; on day 1.5
  effect on growth (OD680): inhibited
Microcystis aeruginosa [3]
  algicidal performance (OD680): excellent algicidal performance
Microcystis aeruginosa [4]
  inhibition rate on Microcystis aeruginosa (chlorophyll a): higher than all other algaecides
Bacillus subtilis
  effect on growth (OD600): basically had no influence on the growth
Bacillus subtilis; listed as acetylacetone
  effect on growth (OD600): no inhibitory effect
Bacillus subtilis; [9]
  killing of bacteria: will not kill
Escherichia coli; 12 mg/L
  growth rate (OD600): slightly lower than that of the control group
Escherichia coli
  effect on growth (OD600): basically had no influence on the growth
Escherichia coli; listed as acetylacetone
  effect on growth (OD600): no inhibitory effect
Escherichia coli; concentration increased to 24 mg/L
  growth rate (OD600): increased slightly
Escherichia coli; [9]
  killing of bacteria: will not kill
Salmonella; 768 mg/L, still a growth trend within 24 h
  growth rate (OD600): decreased
Salmonella; 6-384 mg/L, compared with the control group
  growth rate (OD600): increased
Salmonella; 6-768 mg/L, 24 h, vs control
  effect on growth (OD600): no inhibitory effect; also recorded: basically had no influence on the growth
Salmonella; [9]
  killing of bacteria: will not kill
Staphylococcus aureus; 6-768 mg/L, 24 h, vs control
  effect on growth (OD600): basically had no influence on the growth
Staphylococcus aureus; 6-768 mg/L, 24 h, vs control, listed as acetylacetone
  effect on growth (OD600): no inhibitory effect
Staphylococcus aureus; [9]
  killing of bacteria: will not kill
Staphylococcus aureus; concentration of up to 768 mg/L
  effect on growth (OD600): can still promote the growth
Microcystis aeruginosa [5]; after 1 day of incubation, 7, 10, 15 mg/L
  actual photochemical quantum yield: significantly inhibited
Microcystis aeruginosa [5]; second day of growth, AA of greater than 7 mg/L
  actual photochemical quantum yield: 0
Microcystis aeruginosa [6]; 10 mg/L
  effect on growth (OD680): significantly inhibited
Microcystis aeruginosa [6]; 20 mg/L
  effect on growth (OD680): significantly inhibited
[7]
  Henry's law constant: 2.35×10^−6 atm m^3/mol
[8]
  aquatic oxidation rate: 9.9e-09 M⁻¹ s⁻¹
Daphnia magna
  median lethal dose: higher than 50 mg/L

## O=C(O)c1cc(O)c(O)c(O)c1 [gallic acid, reference compound]
Microcystis aeruginosa [4]
  inhibition rate on Microcystis aeruginosa (chlorophyll a): close to that of AA
